Each compound was assayed against T1, ERR1 (also known as ERR-α or ERR-1) (Homo sapiens, UniProt P11474) (assay: TR-FRET assay: disruption of co-activator peptide binding to ERR1 LBD). Details: 6His-tagged ERR1 LBD 6 nM, GST-SRC-2 peptide 6 nM, 25° C., 4-18 hours; average of 3 independent experiments.
T1 construct: the ^6His-tagged-ERR1 LBD
T1 sequence (P11474 193-421 limits assumed): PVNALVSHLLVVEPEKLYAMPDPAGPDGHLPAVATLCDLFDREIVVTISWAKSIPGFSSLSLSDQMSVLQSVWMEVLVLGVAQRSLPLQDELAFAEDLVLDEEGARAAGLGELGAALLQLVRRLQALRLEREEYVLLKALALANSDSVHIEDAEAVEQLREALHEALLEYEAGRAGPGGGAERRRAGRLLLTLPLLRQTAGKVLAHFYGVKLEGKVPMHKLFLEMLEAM
Assay type: biochemical
Outline: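 The 6His-ERR1 LBD and a GST-hSRC2 co-activator peptide were detected by α-GST Eu cryptate and α-6His-XL665 TR-FRET. Buffer was 25 mM Tris pH 8, 2.5 mM Hepes, 20 mM KCl, 1 mM DTT, 0.05 mg/mL BSA, equilibrated 4-18 h at 25° C. Dose-response curves were fitted hyperbolically and averaged over 3 independent experiments.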

SMILES	EC50 [µM]
COc1cc(/C=C2\SC(NC3CCN(CCO)CC3)=NC2=O)ccc1Oc1ccc(C#N)cc1C(F)(F)F [Example 111, 4-(4-{2-[1-(2-Hydroxy-ethyl)-piperidin-4-ylamino]-4-oxo-4H-thiazol-5-ylidenemethyl}-2-methoxy-phenoxy)-3-trifluoromethyl-benzonitrile]	0.015
N#Cc1ccc(Oc2ccc(/C=C3\SC(NC4CCN(CCO)CC4)=NC3=O)cc2F)c(C(F)(F)F)c1 [Example 112, 4-(2-Fluoro-4-{2-[1-(2-hydroxy-ethyl)-piperidin-4-ylamino]-4-oxo-4H-thiazol-5-ylidenemethyl}-phenoxy)-3-trifluoromethyl-benzonitrile]	0.026
COC(=O)c1ccc(Oc2ccc(/C=C3\SC(N4CCC(C(=O)OC)CC4)=NC3=O)cc2OC)c(C(F)(F)F)c1 [Example 113, 1-{5-[3-Methoxy-4-(4-methoxycarbonyl-2-trifluoromethyl-phenoxy)-benzylidene]-4-oxo-4,5-dihydro-thiazol-2-yl}-piperidine-4-carboxylic acid methyl ester]	0.014
COc1cc(/C=C2\SC(N3CCCC(O)C3)=NC2=O)ccc1Oc1ccc(C(N)=O)cc1C(F)(F)F (stereo not drawn) [Example 114, 4-{4-[2-(3-Hydroxy-piperidin-1-yl)-4-oxo-4H-thiazol-5-ylidenemethyl]-2-methoxy-phenoxy}-3-trifluoromethyl-benzamide]	0.3
COc1cc(/C=C2\SC(N3CCNC(=O)C3)=NC2=O)ccc1Oc1ccc(C(N)=O)cc1C(F)(F)F [Example 115, 4-{2-Methoxy-4-[4-oxo-2-(3-oxo-piperazin-1-yl)-4H-thiazol-5-ylidenemethyl]-phenoxy}-3-trifluoromethyl-benzamide]	0.089
N#Cc1ccc(Oc2ccc(/C=C3\SC(N4CC(C(=O)O)C4)=NC3=O)cc2F)c(C(F)(F)F)c1 [Example 116, 1-{5-[4-(4-Cyano-2-trifluoromethyl-phenoxy)-3-fluoro-benzylidene]-4-oxo-4,5-dihydro-thiazol-2-yl}-azetidine-3-carboxylic acid]	0.034
COc1cc(/C=C2\SC(N(CCO)CCO)=NC2=O)ccc1Oc1ccc(C(F)(F)F)cc1C(F)(F)F [Example 117, 2-[Bis-(2-hydroxy-ethyl)-amino]-5-[4-(2,4-bis-trifluoromethyl-phenoxy)-3-methoxy-benzylidene]-thiazol-4-one]	0.04
CC(C)c1ccccc1Oc1ccc(/C=C2\SC(N3CC(C(=O)O)C3)=NC2=O)cc1 [Example 118, 1-{5-[4-(2-Isopropyl-phenoxy)-benzylidene]-4-oxo-4,5-dihydro-thiazol-2-yl}-azetidine-3-carboxylic acid]	0.021
COc1cc(/C=C2\SC(N3CC(C(=O)O)C3)=NC2=O)ccc1Oc1ccccc1C(F)(F)F [Example 119, 1-{5-[3-Methoxy-4-(2-trifluoromethyl-phenoxy)-benzylidene]-4-oxo-4,5-dihydro-thiazol-2-yl}-azetidine-3-carboxylic acid]	0.01
